Experimental data as given in patent US10730839B2, “Quinolines as cytoprotective agents” (priority 2016, dated 2020).

Tested on: HEK293 cells; N2a cells
Experiment: Cell rescue assay: protection against thapsigargin (TG)-induced cell-death (ALAMARBLUE)
Format: cell-based, Human; Mouse
Details: Homo sapiens; compound 20 μM, 2 hrs before thapsigargin (15 μM HEK293, 1 μM N2a), 24 hrs; viability as % RFU compared to control; read-out: Cell Survival %
Experimental: Protection against Thapsigargin (TG)-induced Cell-death. Human embryonic kidney (HEK293) cells were grown in Dulbecco's Modified Eagle's Medium (DMEM) with 10% FBS and 1% antibiotic antimycotic solution (ABAM). Mouse neuroblastoma (N2a) cells were grown in 1:1 DMEM:OPTI-MEM® with 5% FBS and 1% ABAM. All cells were grown in 10% CO2 in a humidified environment of the incubator. Cells grown in 96-well plates were exposed to a test compound (20 μM) for 2 hrs before addition of thapsigargin (15 μM for HEK293 cells and 1 μM for N2a cells) to induce ER stress. After incubation in cell-culture incubator for 24 hrs, ALAMARBLUE® regent (10% v/v) was added to the wells. Fluorescence reading was taken 2 hrs after the addition of the ALAMARBLUE® regent. Cell-viability was calculated as a percentage of relative fluorescence unit (RFU) compared to control. […] The biological results are summarized in Table 2, where each compound was tested at 20 μM and where A represents a viability greater than 50%, B represents a viability greater than 10% and less than 50%, C represents a value at or below 10%.

| SMILES | viability at 20 µM [%] |
| --- | --- |
| Cc1ccc2cccc(C(=O)Nc3cc(Br)cs3)c2n1 [B1, N-(4-Bromothiophen-2-yl)-2-methylquinoline-8-carboxamide] | > 50 |
| Cc1ccc2cccc(C(=O)Nc3ccc(Br)s3)c2n1 [B2, N-(5-Bromothiophen-2-yl)-2-methylquinoline-8-carboxamide] | > 50 |
| Cc1ccc2cccc(C(=O)Nc3ccc(C)s3)c2n1 [B3, 2-Methyl-N-(5-methylthiophen-2-yl)quinoline-8-carboxamide] | ≤ 10 |
| Cc1ccc2cccc(C(=O)Nc3cccs3)c2n1 [B4, 2-Methyl-N-(thiophen-2-yl)quinoline-8-carboxamide] | > 50 |
| Cc1ccc2cccc(C(=O)Nc3ccc(C4CC4)s3)c2n1 [B5, N-(5-Cyclopropylthiophen-2-yl)-2-methylquinoline-8-carboxamide] | ≤ 10 |

Tested on: SH-SY5Y cells
Experiment: Cell rescue assay: protection against ß-amyloid-induced cell toxicity
Format: cell-based
Details: Homo sapiens, 96 h, 7.5 uM compound, AB 1-42 at 10 uM, 4 days, OD at 490 nm, read-out: Cell Survival % (cell rescue)
Experimental: Protection against ß-amyloid-induced cell toxicity. Chonpathompikunlert et al. Eu. J. Pharmacol. 2011, 650, 544-549. Human SH-SY5Y cells are suspended in media containing 2% FBS and 2× Gentamicin. Transfer 100 ul/well culture to 96-well plate (20,000 cells/well; passage #5) and incubate overnight. Prepare compound samples at 30 uM. Add 50 ul of the samples to the cells [[…]] and incubate 3 hours. Make stock of 40 uM AB 1-42 peptide in assay media. Transfer 50 ul/well to cells/compounds in assay plate. The final assay volume is 200 ul/well, containing 2% FBS, 2× Gentamicin, 7.5 uM compound and AB 1-42 at 10 uM. Incubate for 4 days then add 20 ul of Promega Substrate Cell Titer 96 Aqueous One Solution Reagent to each well. Incubate 37 OC and read OD at 490 nm. The results are summarized in Table 3, where A represents a value equal to or greater than 50% cell rescue, B represents a value greater than 10% and less than 50% cell rescue, and C represents a value greater than 1% and less than or equal to 10% cell rescue.

| SMILES | viability at 7.5 µM [%] |
| --- | --- |
| Cc1ccc2cccc(C(=O)Nc3cc(Br)cs3)c2n1 [B1, N-(4-Bromothiophen-2-yl)-2-methylquinoline-8-carboxamide] | 10 to 50 |
| Cc1ccc2cccc(C(=O)Nc3ccc(Br)s3)c2n1 [B2, N-(5-Bromothiophen-2-yl)-2-methylquinoline-8-carboxamide] | 10 to 50 |
| Cc1ccc2cccc(C(=O)Nc3ccc(C)s3)c2n1 [B3, 2-Methyl-N-(5-methylthiophen-2-yl)quinoline-8-carboxamide] | 1 to 10 |
| Cc1ccc2cccc(C(=O)Nc3cccs3)c2n1 [B4, 2-Methyl-N-(thiophen-2-yl)quinoline-8-carboxamide] | ≥ 50 |
| Cc1ccc2cccc(C(=O)Nc3ccc(C4CC4)s3)c2n1 [B5, N-(5-Cyclopropylthiophen-2-yl)-2-methylquinoline-8-carboxamide] | 1 to 10 |

Tested on: Ob/ob mice
Experiment: Effect of a SERCA agonist on the level of blood glucose
Format: in vivo
Details: Mus musculus, ip, 96 h, 50 mg/kg i.p. once a day for 5 days, fasting glucose at baseline and 4 days after administration, read-out: Glucose level reduction
Experimental: Ob/ob mice (10 weeks old, n=7) were intraperitoneally (i.p.) injected with 100 μL of a solution containing 0 (vehicle) or 50 mg/kg of a test compound once a day for a total of 5 days. Fasting glucose was measured at baseline and 4 days after the administration of the test compound. Glucose levels were measured in blood samples drawn from the tail vein using a handheld glucose sensor. Compound effects on blood glucose are shown in Table 5 where A represents a 10-20% reduction in blood glucose, B represents a 21-30% reduction in blood glucose, and C represents a greater than 30% reduction in blood glucose levels.

| SMILES | inhibition in vivo at 50 mg/kg [%] |
| --- | --- |
| Cc1ccc2cccc(C(=O)Nc3cc(Br)cs3)c2n1 [B1, N-(4-Bromothiophen-2-yl)-2-methylquinoline-8-carboxamide] | > 30 |
| Cc1ccc2cccc(C(=O)Nc3ccc(Br)s3)c2n1 [B2, N-(5-Bromothiophen-2-yl)-2-methylquinoline-8-carboxamide] | 21 to 30 |
| Cc1ccc2cccc(C(=O)Nc3ccc(C)s3)c2n1 [B3, 2-Methyl-N-(5-methylthiophen-2-yl)quinoline-8-carboxamide] | 10 to 20 |
| Cc1ccc2cccc(C(=O)Nc3cccs3)c2n1 [B4, 2-Methyl-N-(thiophen-2-yl)quinoline-8-carboxamide] | > 30 |
| Cc1ccc2cccc(C(=O)Nc3ccc(C4CC4)s3)c2n1 [B5, N-(5-Cyclopropylthiophen-2-yl)-2-methylquinoline-8-carboxamide] | 10 to 20 |

Tested on: CSM14.1 neuronal cells
Experiment: Cell survival assay (thapsigargin-treated cells, CELLTITER-GLO luminescence)
Format: cell-based
Details: compound 2 hrs before about 15 μM thapsigargin, overnight
Experimental: CSM14.1 neuronal cells were maintained in Complete Medium at 32° C.; wherein the Complete Medium contained Dulbecco's modified eagle medium (DMEM) with 10% fetal bovine serum (FSB), 1% L-glutamine, 100 IU/mL penicillin, and 100 μg/mL streptomycin. The cells were recovered from cultures by trypsinization and then seeded in 384 well plates (Greiner #781098) at a concentration of 1,000 cells/well in 20 μL of DMEM Assay Medium, wherein the DMEM Assay Medium contained 2% FBS, 100 IU/mL penicillin, and 100 μg/mL streptomycin. Seeding was performed using a MultiDrop Combi reagent broadcaster. The plates were incubated overnight at 32° C. A test compound was prepared by 2-fold serial dilution in 100% DMSO using a BIOMEK® 2000 liquid handler (Beckman Coulter). A dose-response curve containing 10 concentrations of the test compound was obtained. Using a BIOMEK® FX liquid handler (Beckman Coulter), 2.5 μL of the test compound was transferred from the 100% DMSO serial dilution plate to an intermediate plate containing 47.5 μL of DMEM Assay Medium containing 2% FBS, 100 IU/mL penicillin, and 100 μg/mL streptomycin and mixed. To reduce or eliminate the interference from the compound's precipitation, 6 μL of the diluted compound was immediately transferred to the assay plate to achieve a high compound concentration of 100 μM in 99% DMEM Assay Medium and 1% DMSO. After the assay plates were incubated for 2 hrs, 4 μL of 112.5 μM thapsigargin (TG) (DMSO stock diluted into Assay TC Medium) was dispensed into each testing well with a MultiDrop Combi reagent broadcaster for a final concentration of about 15 μM TG. The tissue culture media (4 μL) containing vehicle only was transferred manually to each control cell using a 16 channel electronic pipette. After the plates were incubated overnight (about 16 to 24 hrs), CELLTITER-GLO® (Promega) (16 μL) was added to all wells and luminescence was measured. High luminescence indicates cell survival. The biological results are summarized in Table 1 where A represents a cell viability EC50 less than 1 μM and B represents a value greater than 1 μM and less than 10 μM and C represents a value equal to or greater than 10 μM and less than 20 μM.

| SMILES | EC50 [µM] |
| --- | --- |
| Cc1ccc2cccc(C(=O)Nc3cc(Br)cs3)c2n1 [B1, N-(4-Bromothiophen-2-yl)-2-methylquinoline-8-carboxamide] | 1 to 10 |
| Cc1ccc2cccc(C(=O)Nc3ccc(Br)s3)c2n1 [B2, N-(5-Bromothiophen-2-yl)-2-methylquinoline-8-carboxamide] | 1 to 10 |
| Cc1ccc2cccc(C(=O)Nc3ccc(C)s3)c2n1 [B3, 2-Methyl-N-(5-methylthiophen-2-yl)quinoline-8-carboxamide] | 1 to 10 |
| Cc1ccc2cccc(C(=O)Nc3cccs3)c2n1 [B4, 2-Methyl-N-(thiophen-2-yl)quinoline-8-carboxamide] | 1 to 10 |
| Cc1ccc2cccc(C(=O)Nc3ccc(C4CC4)s3)c2n1 [B5, N-(5-Cyclopropylthiophen-2-yl)-2-methylquinoline-8-carboxamide] | 1 to 10 |

Molecular target: T1, SERCA (Homo sapiens, UniProt P16615)
T1 construct: microsomal preparations from HEK 293 cells; endogenous in cells; host or cells: HEK 293 cells (microsomal preparation)
T1 sequence (P16615 whole entry): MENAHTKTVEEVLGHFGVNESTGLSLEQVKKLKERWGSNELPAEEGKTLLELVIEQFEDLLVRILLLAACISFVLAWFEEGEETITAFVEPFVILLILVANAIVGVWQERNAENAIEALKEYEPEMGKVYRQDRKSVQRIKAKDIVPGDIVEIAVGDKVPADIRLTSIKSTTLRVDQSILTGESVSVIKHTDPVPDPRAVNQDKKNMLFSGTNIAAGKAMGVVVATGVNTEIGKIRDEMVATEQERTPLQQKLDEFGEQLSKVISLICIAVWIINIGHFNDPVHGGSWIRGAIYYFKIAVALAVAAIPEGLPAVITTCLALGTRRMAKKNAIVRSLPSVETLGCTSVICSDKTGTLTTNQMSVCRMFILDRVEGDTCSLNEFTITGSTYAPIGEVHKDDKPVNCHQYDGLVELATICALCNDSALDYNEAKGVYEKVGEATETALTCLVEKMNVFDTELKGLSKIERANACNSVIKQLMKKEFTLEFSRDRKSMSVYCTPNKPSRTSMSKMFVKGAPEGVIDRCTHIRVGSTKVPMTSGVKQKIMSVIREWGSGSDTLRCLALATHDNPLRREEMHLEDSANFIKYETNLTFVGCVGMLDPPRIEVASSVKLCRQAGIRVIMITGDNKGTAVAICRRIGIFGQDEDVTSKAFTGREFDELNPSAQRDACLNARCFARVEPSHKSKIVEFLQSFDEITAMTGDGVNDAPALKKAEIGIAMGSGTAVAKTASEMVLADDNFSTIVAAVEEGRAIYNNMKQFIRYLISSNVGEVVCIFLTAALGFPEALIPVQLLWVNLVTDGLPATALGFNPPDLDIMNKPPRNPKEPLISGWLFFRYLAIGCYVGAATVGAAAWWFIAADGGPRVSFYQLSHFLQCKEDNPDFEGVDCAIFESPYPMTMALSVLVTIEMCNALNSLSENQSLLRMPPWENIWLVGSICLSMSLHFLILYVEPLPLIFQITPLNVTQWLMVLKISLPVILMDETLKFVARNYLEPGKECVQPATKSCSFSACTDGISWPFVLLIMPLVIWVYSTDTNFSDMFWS
Experiment: Ca-ATPase assay (NADH-linked, enzyme-coupled ATPase assay)
Format: biochemical
Details: microsomal preparations from HEK 293 cells, Vmax from Hill fit of ATPase calcium-dependence, relative to controls
Experimental: A Ca-ATPase assay was performed using microsomal preparations from HEK 293 cells at a series of calcium concentrations corresponding to the physiological range, relative to controls. The ATP hydrolysis rate was measured over a range of calcium concentrations in the presence of test compounds using an NADH-linked, enzyme-coupled ATPase assay adapted for 96-well microplates, with Vmax determined by fitting the ATPase calcium-dependence to the Hill function. Each well contained 2 μg or 7 μg of SR vesicles (optimized for skeletal or cardiac SR, respectively), 50 mM MOPS (pH 7.0), 100 mM KCl, 5 mM MgCl2, 1 mM EGTA, 0.2 mM NADH, 1 mM phosphoenol pyruvate, 5 IU pyruvate kinase, 5 IU lactate dehydrogenase, and 3.5 μg/mL A23187 (a calcium ionophore). CaCl2 was added to set free [Ca^2+] to the specific values. The assay was started upon addition of ATP at a final concentration of 5 mM, and read in a SpectraMax Plus microplate spectrophotometer. The results are summarized in Table 4, where A represents an increase in SERCA Vmax greater than or equal to 50% and B represents a value greater than 10% and less than 50%.

| SMILES | SERCA Vmax Increase |
| --- | --- |
| Cc1ccc2cccc(C(=O)Nc3cc(Br)cs3)c2n1 [B1, N-(4-Bromothiophen-2-yl)-2-methylquinoline-8-carboxamide] | A (an increase in SERCA Vmax greater than or equal to 50%) |
| Cc1ccc2cccc(C(=O)Nc3ccc(Br)s3)c2n1 [B2, N-(5-Bromothiophen-2-yl)-2-methylquinoline-8-carboxamide] | A (an increase in SERCA Vmax greater than or equal to 50%) |
| Cc1ccc2cccc(C(=O)Nc3ccc(C)s3)c2n1 [B3, 2-Methyl-N-(5-methylthiophen-2-yl)quinoline-8-carboxamide] | B (a value greater than 10% and less than 50%) |
| Cc1ccc2cccc(C(=O)Nc3cccs3)c2n1 [B4, 2-Methyl-N-(thiophen-2-yl)quinoline-8-carboxamide] | B (a value greater than 10% and less than 50%) |
| Cc1ccc2cccc(C(=O)Nc3ccc(C4CC4)s3)c2n1 [B5, N-(5-Cyclopropylthiophen-2-yl)-2-methylquinoline-8-carboxamide] | A (an increase in SERCA Vmax greater than or equal to 50%) |
